Here are results for one molecule from paper PMC11239005, “Preclinical studies of RA475, a guanidine-substituted spirocyclic candidate RPN13/ADRM1 inhibitor for treatment of ovarian cancer” (PLOS ONE, 2024).

The structures appear in SMILES notation.

For series [1], the system named is spontaneous genetically-engineered peritoneal tumor (shp53, AKT, c-Myc). The series can be described thus: Spontaneous GEMM of primary peritoneal/ovarian cancer. The class given is in vivo, mouse. The following applies: C57BL/6. The procedure: To induce IP tumor formation in immunocompetent mice, oncogenes (shp53, AKT, c-Myc), luciferase and the Sleeping Beauty (SB) transposase (10 μg/plasmid) were diluted in 500 μL of PBS and injected IP into female C57BL/6 mice. The mice were anesthetized by intramuscular injection of 50–100μL of a cocktail of ketamine 16 mg/mL / 3 mg/mL xylazine. The plasmid-injected mice were electroporated (EP) by the BTX ECM 830 square wave EP generator (BTX) (5 pulses, 200 V for 100 ms/pulse, 100 ms intervals between each pulse) with the caliper electrode (BTX) held across the waist of mouse. The mice were followed by IVIS imaging weekly for tracking tumor growth. The mice were sacrificed when the bioluminescence signal reached 10^9 photons/sec/cm^2/sr, or had enlarged abdomens due to the production of ascites, or had health conditions and/or criteria under which early euthanasia was required by the protocol. To track peritoneal tumor growth, bioluminescence imaging was performed by the IVIS Spectrum2000 (PerkinElmer) as the plasmid expressing SB transposase also produces luciferase. Briefly, the mice were injected IP with D-luciferin (GoldBio). After 10 min, the mice were anesthetized with isoflurane, and imaged by the IVIS Spectrum under the auto exposure mode. Bioluminescence in the peritoneal region was quantified as total photon counts/sec/cm^2/sr using Living Image 3.0 Software (Perkin Elmer).
GEMM better mimic the spontaneous development of cancers in an immune competent host than transplantable tumor lines. Female C57BL/6 mice were co-injected IP with sleeping beauty vector and plasmids expressing carrying shp53, AKT, c-Myc and firefly luciferase genes, followed by electroporation (EP) to deliver these plasmid DNA into the peritoneal cavity cells wherein they integrate randomly into their genome. After 7 days mice were imaged by IVIS200 for bioluminescence and randomized. Four groups (n = 8) were treated IP with vehicle or RA475 (40mg/kg, IP, every 3 days) or Cisplatin (5 mg/Kg, once a week) or the combination of RA475 (40mg/Kg, IP, every 3 days) plus Cisplatin (5 mg/Kg, once a week). […] While cisplatin reduced tumor growth, it led to severe toxicity including weight loss >20% that was not evident with RA475 alone.
Fig 7 Administration of RA475, cisplatin or the combination to mice bearing spontaneous, genetically-engineered model ovarian/peritoneal cancer. Female C57BL/6 mice were co-injected IP with sleeping beauty vector and plasmids expressing carrying shp53, AKT, c-Myc and firefly luciferase genes, followed by electroporation (EP) to deliver these plasmid DNA into the peritoneal cavity cells wherein they integrate randomly into their genome. After 7 days mice were imaged by Xenogen IVIS200 for bioluminescence and randomized. […]

Series [2] can be described thus: Stability in human liver microsomes. The settings on record: with or without NADPH, over 1 h. Type of series: in vitro ADME. The procedure:
Human and mouse liver microsomes and NADPH regenerating system solutions were purchased from Corning Life Sciences (Tewsbury, MA). Human and mouse K2EDTA-treated plasma was purchased from BioIVT (Westbury, NY). Metabolic studies in liver microsomes (0.125 mg/mL) were conducted in 1x PBS (pH 7.4), NADPH-generating system, and 10 μM RA475 in a final volume of 250 μL. An incubation mixture with or without NADPH-generating system, as well as a neat solution prepared without microsomes and NADPH-generating system was used. RA475 was added at the same concentration level into human and mouse EDTA plasma. All reactions were initiated with the addition of RA475. Incubations were performed in glass tubes maintained at 37°C in a shaker bath. At 0, 30, and 60 min, 10 μL samples were withdrawn from the reaction mixture, and 0.5 mL of acetonitrile containing internal standard was added to each. Samples were vortex-mixed and subjected to centrifugation for 5 min at 1430 x g. A 10 μL aliquot of the supernatant was injected onto the LC-MS/MS instrument for qualitative analysis using a temperature-controlled autosampling device operating at 5°C (See Pharmacokinetic section).
(In general: Liver microsomes are vesicles of endoplasmic reticulum, rich in cytochrome P450 enzymes.)

Series [3] can be described thus: Human plasma protein binding, equilibrium dialysis. The class given is in vitro ADME. The following applies: pH 7.4, dialysis 5 h. As to the method:
The assay was performed in a multiple-use 96-well dialysis unit (HTD96b dialyzer). Each individual well unit consisted of 2 chambers separated by a vertically aligned dialysis membrane of predetermined pore size (MWCO 12–14 kDa). 120 μL of non-diluted plasma spiked with the compound (1 μM, final DMSO concentration 1%) was added to one chamber, and the same volume of PBS buffer pH 7.4 to the other chamber. The HTD96b dialyzer was covered with adhesive sealing film and incubated 5 h at 37°C while shaking at 100 rpm. For sample preparation, an aliquot of the contents of each chamber was mixed with the same volume of the blank opposite matrix. In order to define non-specific loss of the compound during this assay, a standard solution was created by mixing an aliquot of spiked plasma with blank buffer without dialysis. Two aliquots of the standard solution were incubated at 37°C, shaking at 100 rpm for 5 h (recovery samples). The other two aliquots were immediately diluted with acetonitrile and stored at 4°C until analysis (stability samples). All samples were diluted 5-fold with internal standard diluted in 100% methanol with subsequent plasma proteins sedimentation by centrifuging at 6000 rpm for 5 minutes. Supernatants were analyzed using LC-MS/MS. The percentage of plasma protein bound compound, recovery and stability were calculated using following equations. […]

The mark [4] stands for this setting: RA475 40 mg/kg IP every 3 days (12 doses), cisplatin 5 mg/Kg weekly (5 doses alone, 3 in combination).

For orientation: fraction unbound means the share of the substance not bound to proteins or other matrix. A low value points to little free substance.

For `Cl.Cl.N#Cc1ccc(/C=C2/C(=O)/C(=C/c3ccc(C#N)cc3)C23CCN(C(=N)N)CC3)cc1` [RA475, 1,3-bis((E)-4-cyanobenzylidene)-2-oxo-7-azaspiro[3.5]nonane-7-carboximidamide dihydrochloride], in series [1] (setting [4]), the survival entry is listed as “extended survival to a similar extent as cisplatin alone” and the “tumor burden by bioluminescence” value is listed as “delayed but did not significantly reduce tumor burden”. In addition, the weight loss result in series [1] (RA475 40 mg/kg IP every 3 days, cisplatin 5 mg/Kg weekly) is “not evident”. In series [2], the “degradation in liver microsomes” value is reported as less than 10%. Further, the fraction unbound at 5 h, 1 μM in series [3] was 0.009.
